Experiments:
wild-type HCMV AD169 = assay: Susceptibility (IC50) of HCMV AD169 wild-type; type: cell-based, Human cytomegalovirus; conditions: Human betaherpesvirus 5, NHDF cells, read-out: IC 50, Wild-type
Protocol: (§1) The test compounds are employed as 50 millimolar (mM) solutions in dimethyl sulfoxide (DMSO). Ganciclovir®, Foscarnet® and Cidofovir® are used as reference compounds. After addition of in each case 2 μl of the 50, 5, 0.5 and 0.05 mM DMSO stock solutions to 98 μl portions of cell culture medium in row 2 A-H for duplicate determinations, 1:2 dilutions are carried out with 50 μl portions of medium up to row 11 of the 96-well plate. The wells in rows 1 and 12 each contain 50 μl of medium. 150 μl of a suspension of 1×10^4 cells (human prepuce fibroblasts [NHDF]) are then pipetted into each of the wells (row 1=cell control) and, in rows 2-12, a mixture of HCMV-infected and uninfected NHDF cells (M.O.I.=0.001-0.002), i.e. 1-2 infected cells per 1000 uninfected cells. Row 12 (without substance) serves as virus control. The final test concentrations are 250-0.0005 μM. The plates are incubated at 37° C./5% CO2 for 6 days, i.e. until all the cells are infected in the virus controls (100% cytopathogenic effect [CPE]). The wells are then fixed and stained by adding a mixture of formalin and Giemsa's dye (30 minutes), washed with double-distilled water and dried in a drying oven at 50° C. The plates are then assessed visually using an overhead microscope (plaque multiplier from Technomara).
(§2) For this purpose, NHDF cells are seeded in tissue culture vessels. 5×10^3 cells per well are seeded in 96-well plates and infected with cell-free HCMV AD169 with an moi of 0.03. The infections are cultivated under substance pressure which corresponds to 10 times the IC50 of the substance. Preferably, 30-100 96-well plates inoculated as described are made up. […] Finally, viral stocks are produced as described above and frozen. Serial ten-fold dilution of the virus-infected cells or of the cell culture supernatant of the virus-infected cells is followed by determination of the titer on 24-well plates of confluent NHDF cells after vital staining with neutral red. Finally, the susceptibility to various substances (IC50 determination) is determined as described above.
(§3) The HCMVAD169 mutants selected as described above are grown in vitro on human embryonic prepuce fibroblasts (NHDF cells) under substance pressure (10×IC50 HCMVAD169). After infection of the NHDF cells with a multiplicity of infection (M.O.I) of 0.01, the virus-infected cells are harvested 5-10 days later, and the total DNA is isolated from these cells with the aid of established standard methods (e.g. phenol extraction and ethanol precipitation). Qiagen Sequencing Services (Qiagen, Hilden) determined, after amplification of the viral UL86 gene by PCR, the DNA sequence, which was then transcribed into protein sequence. Compared with the initial strain HCMV AD169, the differences shown in table 2 were detectable in the protein sequence of the major capsid protein (UL86) in the resistant viruses. The IC50 values [μM] of various substances on these mutants compared with the initial strain are likewise indicated. (n.d.=not measured). […] Depending on the nature of the substance, certain mutations lead to various extents of resistance.

[1] = tested on: HCMV AD169 clone with mutation in UL86 D441N; assay: Susceptibility (IC50) of resistant HCMV AD169 clone D441N; type: cell-based, Human cytomegalovirus; conditions: Human betaherpesvirus 5, read-out: IC 50, D441N
Protocol: as §1, §2, §3

[2] = tested on: HCMV AD169 clone with mutation in UL86 A689T; assay: Susceptibility (IC50) of resistant HCMV AD169 clone A689T; type: cell-based, Human cytomegalovirus; conditions: Human betaherpesvirus 5, read-out: IC 50, A689T
Protocol: as §1, §2, §3

HCMV Davis or HCMV AD169 = assay: HCMV Xenograft Gelfoam model; type: in vivo, immunodeficient mice; conditions: oral treatment over 8 days, infectious virus particles vs placebo-treated control; approximate results
From the text: 3-4-week old female immunodeficient mice (16-18 g), Fox Chase SCID or Fox Chase SCID-NOD or SCID beige, are purchased from commercial breeders (Bomholtgaard, Jackson, USA). The animals are housed under sterile conditions (including bedding and feed) in isolators.
Collagen sponges 1×1×1 cm in size (Gelfoam®; from Peasel & Lorey, order No. 407534; K. T. Chong et al., Abstracts of 39th Interscience Conference on Antimicrobial Agents and Chemotherapy, 1999, p. 439) are initially wetted with phosphate-buffered saline (PBS), the trapped air bubbles are removed by degassing, and then stored in MEM+10% FCS. 1×10^6 virus-infected NHDF cells (infection with HCMV Davis or HCMV AD169 M.O.I.=0.03) are detached 3 hours after infection and added in a drop of 20 μl of MEM, 10% FCS, to a moist sponge. 12-13 hours later, the infected sponges are incubated with 25 μl of PBS/0.1% BSA/1 mM DTT with 5 ng/μl basic fibroblast growth factor (bFGF). For the transplantation, the immunodeficient mice are anesthetized with Avertin or a ketamine/xylazine/azepromazine mixture, the fur on the back is removed using a shaver, the epidermis is opened 1-2 cm, unstressed and the moist sponges are transplanted under the dorsal skin. The surgical wound is closed with tissue glue. 6 hours after the transplantation, the mice are treated for the first time (one treatment is given on the day of the operation). On subsequent days, oral treatment with the substance is carried out three times a day (7.00 h and 14.00 h and 19.00 h), twice a day (8 h and 18 h) or once a day (14 h) over a period of 8 days. The daily dose is for example 3 or 10 or 30 or 60 or 100 mg/kg of body weight, the volume administered is 10 ml/kg of body weight. The substances are formulated in the form of a 0.5% strength Tylose suspension with 2% DMSO or a 0.5% strength Tylose suspension. […] The number of infectious virus particles after the substance treatment compared with the placebo-treated control group is determined.

## CCCCC(=O)Nc1ccc(NC(=O)Nc2ccc(F)c(Cl)c2)cc1 [Example 4, N-[4-({[(3-Chloro-4-fluorophenyl)amino]carbonyl}amino)phenyl]pentanamide]
wild-type HCMV AD169
  IC50: 80 nM
[1]
  IC50: 500 nM
[2]
  IC50: 500 nM
HCMV Davis or HCMV AD169
  ED50, antiviral activity in vivo: 70 mg/kg/day

## CC1(C)CC(=O)NN=C1c1cccc(NC(=O)Nc2ccc(F)cc2F)c1 [Example 1, N-(2,4-Difluorophenyl)-N′-[3-(4,4-dimethyl-6-oxo-1,4,5,6-tetrahydro-3-pyridazinyl)phenyl]urea]
wild-type HCMV AD169
  IC50: 1000 nM
[1]
  IC50: 20000 nM
[2]
  IC50: 6000 nM
HCMV Davis or HCMV AD169
  ED50, antiviral activity in vivo: 50 mg/kg/day

## CC1(C)CC(=O)NN=C1c1cc(NC(=O)Nc2cc(F)ccc2F)ccc1O [Example 2, N-(2,5-Difluorophenyl)-N′-[3-(4,4-dimethyl-6-oxo-1,4,5,6-tetrahydro-3-pyridazinyl)-4-hydroxyphenyl]urea]
wild-type HCMV AD169
  IC50: 400 nM
[1]
  IC50: 1500 nM
[2]
  IC50: 1000 nM
HCMV Davis or HCMV AD169
  ED50, antiviral activity in vivo: 45 mg/kg/day

Source: US20070004735A1, “Method for inhibiting the replication of herpes viruses” (priority 2003, published 2007)
